Test results taken from patent US8338443B2, “Chemical compounds” (priority 2006, dated 2012).

Assays:
Spodoptera littoralis = Spodoptera littoralis (Egyptian cotton leafworm) cotton leaf disc spray test; assay type: in vivo; conditions: foliar, 72 h, 200 ppm spray on cotton leaf discs, L1 larvae, mortality, repellent effect, feeding behaviour, growth regulation 3 DAT
Excerpt: Spodoptera littoralis (Egyptian Cotton Leafworm)
Cotton leaf discs were placed on agar in a 24-well microtiter plate and sprayed with test solutions at an application rate of 200 ppm. After drying, the leaf discs were infested with 5 L1 larvae. The samples were checked for mortality, repellent effect, feeding behaviour, and growth regulation 3 days after treatment (DAT). The following compounds gave at least 80% control of Spodoptera littoralis: I-3, II-3, II-7, V-3, XXVII-3, XXVIII-3, XXIX-3, XXXI-3.

Aedes aegypti = Aedes aegypti (yellow fever mosquito) larvae test; assay type: in vivo; conditions: 48 h, L2 larvae in 96-well plates, 2 days, mortality and growth inhibition
Excerpt: Aedes aegypti (Yellow Fever Mosquito):
10-15 Aedes larvae (L2) together with a nutrition mixture are placed in 96-well microtiter plates. Test solutions at an application rate of 2 ppm are pipetted into the wells. 2 days later, insects were checked for mortality and growth inhibition. The following compounds gave at least 80% control of Aedes aegypti: I-3, II-3, II-7, V-3, XXVII-3, XXVIII-3, XXIX-3, XXXI-3.

Row | Structure (SMILES) | pest or weed control at 200 ppm (Spodoptera littoralis) | pest or weed control at 2 ppm (Aedes aegypti)
1 | O=C(Nc1ccc2cccnc2c1C1=CCN(C/C=C/c2ccc(Cl)cc2)CC1)c1ccnc(Cl)c1 [XXIX-3] | ≥ 80% | ≥ 80%
2 | O=C(Nc1ccc2cn[nH]c2c1C1CCN(C/C=C/c2ccc(Cl)cc2)CC1)c1ccnc(Cl)c1 [XXVII-3] | ≥ 80% | ≥ 80%
3 | O=C(Nc1ccc2cccnc2c1C1CCN(C/C=C/c2ccc(Cl)cc2)CC1)c1ccnc(Cl)c1 [Compound I-3] | ≥ 80% | ≥ 80%
4 | O=C(Nc1ccc2scnc2c1C1CCN(C/C=C/c2ccc(OC(F)(F)F)cc2)CC1)c1ccnc(Cl)c1 [II-7] | ≥ 80% | ≥ 80%
5 | Cc1nc2c(C3=CCN(C/C=C/c4ccc(Cl)cc4)CC3)c(NC(=O)c3ccnc(Cl)c3)ccc2s1 [XXXI-3] | ≥ 80% | ≥ 80%
6 | O=C(Nc1ccc2nccnc2c1C1CCN(C/C=C/c2ccc(Cl)cc2)CC1)c1ccnc(Cl)c1 [XXVIII-3] | ≥ 80% | ≥ 80%
7 | O=C(Nc1ccc2ncsc2c1C1CCN(C/C=C/c2ccc(Cl)cc2)CC1)c1ccnc(Cl)c1 [Compound V-3] | ≥ 80% | ≥ 80%
8 | O=C(Nc1ccc2scnc2c1C1CCN(C/C=C/c2ccc(Cl)cc2)CC1)c1ccnc(Cl)c1 [II-3, 2-Chloro-N-(4-{1-[(E)-3-(4-chloro-phenyl)-allyl]-piperidin-4-yl}-benzothiazol-5-yl)-isonicotinamide] | ≥ 80% | ≥ 80%
